In ChEMBL document CHEMBL3885881, “DrugMatrix”:

Organism: Rattus norvegicus
Test: DrugMatrix - Regimen: Daily Repeat
Type: toxicity, organism-based, Sprague-Dawley
Parameters: regimen Daily Repeat, gender Male, age 6-8 weeks
Conditions: in vivo, po, route oral GAVAGE, vehicle .5 % CMC; for BASOPHIL / EOSINOPHIL / ERYTHROCYTE COUNT / HEMATOCRIT / HEMOGLOBIN / LEUKOCYTE COUNT / LYMPHOCYTE / MEAN CORPUSCULAR HEMOGLOBIN / MEAN CORPUSCULAR HEMOGLOBIN CONCENTRATION / MEAN CORPUSCULAR VOLUME / MONOCYTE / NEUTROPHIL / PLATELET COUNT: tissue Blood; for ALANINE AMINOTRANSFERASE / ALBUMIN / ALKALINE PHOSPHATASE / ASPARTATE AMINOTRANSFERASE / BLOOD UREA NITROGEN / CHLORIDE / CHOLESTEROL / CREATINE PHOSPHOKINASE / CREATININE / GLUCOSE / PHOSPHORUS / POTASSIUM / SODIUM / TOTAL PROTEIN: tissue Plasma
[1] = 0 mg/kg, 72 h, dose level Control, time 3 day
[2] = 0 mg/kg, 120 h, dose level Control, time 5 day
[3] = 80 mg/kg, 72 h, dose level Low, time 3 day
[4] = 80 mg/kg, 120 h, dose level Low, time 5 day
[5] = 2000 mg/kg, 72 h, dose level High, time 3 day
[6] = 2000 mg/kg, 120 h, dose level High, time 5 day

## CN(C/C=C/C#CC(C)(C)C)Cc1cccc2ccccc12 [TERBINAFINE]
[1]
  BASOPHIL: 0%
  EOSINOPHIL: 0.4%
  ERYTHROCYTE COUNT: 6.43 x10E6/uL
  HEMATOCRIT: 37.36%
  HEMOGLOBIN: 13.98 G/DL
  LEUKOCYTE COUNT: 13 x10E3/uL
  LYMPHOCYTE: 81.4%
  MEAN CORPUSCULAR HEMOGLOBIN: 21.9 pg
  MEAN CORPUSCULAR HEMOGLOBIN CONCENTRATION: 37.4 G/DL
  MEAN CORPUSCULAR VOLUME: 58.52 fL
  MONOCYTE: 0.4%
  NEUTROPHIL: 18%
  PLATELET COUNT: 1386 x10E3/uL
  ALANINE AMINOTRANSFERASE: 39.33 u/L
  ALBUMIN: 3.57 G/DL
  ALKALINE PHOSPHATASE: 283.83 u/L
  ASPARTATE AMINOTRANSFERASE: 69.5 u/L
  BLOOD UREA NITROGEN: 14.83 mg/dL
  CHLORIDE: 107.33 MEQ/L
  CHOLESTEROL: 75.17 mg/dL
  CREATINE PHOSPHOKINASE: 107.67 u/L
  CREATININE: 0.48 mg/dL
  GLUCOSE: 172.5 mg/dL
  PHOSPHORUS: 10.48 mg/dL
  POTASSIUM: 6.9 MEQ/L
  SODIUM: 152.33 MEQ/L
  TOTAL PROTEIN: 5.9 G/DL
[2]
  BASOPHIL: 0%
  EOSINOPHIL: 0.4%
  ERYTHROCYTE COUNT: 6.96 x10E6/uL
  HEMATOCRIT: 41.12%
  HEMOGLOBIN: 15.24 G/DL
  LEUKOCYTE COUNT: 11.06 x10E3/uL
  LYMPHOCYTE: 88.6%
  MEAN CORPUSCULAR HEMOGLOBIN: 21.96 pg
  MEAN CORPUSCULAR HEMOGLOBIN CONCENTRATION: 37.1 G/DL
  MEAN CORPUSCULAR VOLUME: 59.12 fL
  MONOCYTE: 0.2%
  NEUTROPHIL: 10.8%
  PLATELET COUNT: 1155.8 x10E3/uL
  ALANINE AMINOTRANSFERASE: 36.33 u/L
  ALBUMIN: 3.72 G/DL
  ALKALINE PHOSPHATASE: 340.33 u/L
  ASPARTATE AMINOTRANSFERASE: 68.33 u/L
  BLOOD UREA NITROGEN: 15 mg/dL
  CHLORIDE: 108.17 MEQ/L
  CHOLESTEROL: 74.67 mg/dL
  CREATINE PHOSPHOKINASE: 110.67 u/L
  CREATININE: 0.47 mg/dL
  GLUCOSE: 171.33 mg/dL
  PHOSPHORUS: 10.05 mg/dL
  POTASSIUM: 6.7 MEQ/L
  SODIUM: 155.5 MEQ/L
  TOTAL PROTEIN: 6.33 G/DL
[3]
  BASOPHIL: 0%
  EOSINOPHIL: 0.33%
  ERYTHROCYTE COUNT: 6.8 x10E6/uL
  HEMATOCRIT: 41.03%
  HEMOGLOBIN: 15.13 G/DL
  LEUKOCYTE COUNT: 14.73 x10E3/uL
  LYMPHOCYTE: 86.67%
  MEAN CORPUSCULAR HEMOGLOBIN: 22.37 pg
  MEAN CORPUSCULAR HEMOGLOBIN CONCENTRATION: 36.9 G/DL
  MEAN CORPUSCULAR VOLUME: 60.57 fL
  MONOCYTE: 0.33%
  NEUTROPHIL: 12.67%
  PLATELET COUNT: 1306.67 x10E3/uL
  ALANINE AMINOTRANSFERASE: 36 u/L
  ALBUMIN: 3.5 G/DL
  ALKALINE PHOSPHATASE: 332 u/L
  ASPARTATE AMINOTRANSFERASE: 55.67 u/L
  BLOOD UREA NITROGEN: 12.67 mg/dL
  CHLORIDE: 110.33 MEQ/L
  CHOLESTEROL: 64 mg/dL
  CREATINE PHOSPHOKINASE: 119.33 u/L
  CREATININE: 0.57 mg/dL
  GLUCOSE: 180.67 mg/dL
  PHOSPHORUS: 10.6 mg/dL
  POTASSIUM: 7.07 MEQ/L
  SODIUM: 155.67 MEQ/L
  TOTAL PROTEIN: 5.87 G/DL
[4]
  BASOPHIL: 0%
  EOSINOPHIL: 0.33%
  ERYTHROCYTE COUNT: 5.98 x10E6/uL
  HEMATOCRIT: 35.23%
  HEMOGLOBIN: 12.83 G/DL
  LEUKOCYTE COUNT: 13.7 x10E3/uL
  LYMPHOCYTE: 85.33%
  MEAN CORPUSCULAR HEMOGLOBIN: 21.47 pg
  MEAN CORPUSCULAR HEMOGLOBIN CONCENTRATION: 36.4 G/DL
  MEAN CORPUSCULAR VOLUME: 58.97 fL
  MONOCYTE: 0%
  NEUTROPHIL: 14%
  PLATELET COUNT: 1155 x10E3/uL
  ALANINE AMINOTRANSFERASE: 39 u/L
  ALBUMIN: 3.43 G/DL
  ALKALINE PHOSPHATASE: 357.33 u/L
  ASPARTATE AMINOTRANSFERASE: 60.33 u/L
  BLOOD UREA NITROGEN: 13.33 mg/dL
  CHLORIDE: 106.67 MEQ/L
  CHOLESTEROL: 67.33 mg/dL
  CREATINE PHOSPHOKINASE: 121.67 u/L
  CREATININE: 0.47 mg/dL
  GLUCOSE: 151.33 mg/dL
  PHOSPHORUS: 9.77 mg/dL
  POTASSIUM: 6.7 MEQ/L
  SODIUM: 151.33 MEQ/L
  TOTAL PROTEIN: 5.73 G/DL
[5]
  BASOPHIL: 0%
  EOSINOPHIL: 0%
  ERYTHROCYTE COUNT: 6.96 x10E6/uL
  HEMATOCRIT: 41.1%
  HEMOGLOBIN: 15.27 G/DL
  LEUKOCYTE COUNT: 8.67 x10E3/uL
  LYMPHOCYTE: 76.67%
  MEAN CORPUSCULAR HEMOGLOBIN: 21.9 pg
  MEAN CORPUSCULAR HEMOGLOBIN CONCENTRATION: 37.13 G/DL
  MEAN CORPUSCULAR VOLUME: 58.93 fL
  MONOCYTE: 0%
  NEUTROPHIL: 23.33%
  PLATELET COUNT: 1235.33 x10E3/uL
  ALANINE AMINOTRANSFERASE: 55.67 u/L
  ALBUMIN: 3.63 G/DL
  ALKALINE PHOSPHATASE: 246.33 u/L
  ASPARTATE AMINOTRANSFERASE: 120.33 u/L
  BLOOD UREA NITROGEN: 11.33 mg/dL
  CHLORIDE: 108.67 MEQ/L
  CHOLESTEROL: 105.33 mg/dL
  CREATINE PHOSPHOKINASE: 122 u/L
  CREATININE: 0.5 mg/dL
  GLUCOSE: 140.67 mg/dL
  PHOSPHORUS: 10.4 mg/dL
  POTASSIUM: 6.3 MEQ/L
  SODIUM: 156.33 MEQ/L
  TOTAL PROTEIN: 5.9 G/DL
[6]
  BASOPHIL: 0%
  EOSINOPHIL: 0.33%
  ERYTHROCYTE COUNT: 6.14 x10E6/uL
  HEMATOCRIT: 37.1%
  HEMOGLOBIN: 13.7 G/DL
  LEUKOCYTE COUNT: 6.8 x10E3/uL
  LYMPHOCYTE: 87.33%
  MEAN CORPUSCULAR HEMOGLOBIN: 22.37 pg
  MEAN CORPUSCULAR HEMOGLOBIN CONCENTRATION: 36.9 G/DL
  MEAN CORPUSCULAR VOLUME: 60.57 fL
  MONOCYTE: 0%
  NEUTROPHIL: 12.33%
  PLATELET COUNT: 1319.67 x10E3/uL
  ALANINE AMINOTRANSFERASE: 37.67 u/L
  ALBUMIN: 3.6 G/DL
  ALKALINE PHOSPHATASE: 327.67 u/L
  ASPARTATE AMINOTRANSFERASE: 56 u/L
  BLOOD UREA NITROGEN: 12 mg/dL
  CHLORIDE: 106.33 MEQ/L
  CHOLESTEROL: 84.67 mg/dL
  CREATINE PHOSPHOKINASE: 117.33 u/L
  CREATININE: 0.53 mg/dL
  GLUCOSE: 141 mg/dL
  PHOSPHORUS: 10.63 mg/dL
  POTASSIUM: 6.4 MEQ/L
  SODIUM: 152 MEQ/L
  TOTAL PROTEIN: 5.73 G/DL
